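Test compounds were applied to cells in 96-well plates for 48 hours at 5 doses. Abbreviation: GI50, concentration required for 50% inhibition of growth.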 Active and inactive are the calls of the source. No stated cut-off is given here; in the data, active = GI50 up to about 1.1 µM and inactive = higher.
Assays:
Experiment in all cases: DTP human tumour cell line panel, 48 h
SN12C = system: SN12C
CCRF-CEM = system: CCRF-CEM
IGROV-1 = system: IGROV-1
BT-549 = system: BT-549
SK-OV-3 = system: SK-OV-3
KM12 = system: KM12
SF-295 = system: SF-295
PC-3 = system: PC-3
SF-268 = system: SF-268
A498 = system: A498
OVCAR-3 = system: OVCAR-3
Hs-578T = system: Hs-578T
CAKI-1 = system: CAKI-1
SNB-19 = system: SNB-19
SK-MEL-2 = system: SK-MEL-2
M14 = system: M14
TK-10 = system: TK-10
HOP-62 = system: HOP-62

SMILES | GI50 (SN12C) | GI50 (CCRF-CEM) | GI50 (IGROV-1) | GI50 (BT-549) | GI50 (SK-OV-3) | GI50 (KM12) | GI50 (SF-295) | GI50 (PC-3) | GI50 (SF-268) | GI50 (A498) | GI50 (OVCAR-3) | GI50 (Hs-578T) | GI50 (CAKI-1) | GI50 (SNB-19) | GI50 (SK-MEL-2) | GI50 (M14) | GI50 (TK-10) | GI50 (HOP-62)
CCOC(=O)CCC(NC(=O)c1ccc(OCc2nc3cc(C(F)(F)F)ccc3nc2-c2ccccc2)cc1)C(=O)OCC (stereo not drawn) | > 100 µM (inactive) | 58.2 µM (inactive) | 75.2 µM (inactive) | 56.6 µM (inactive) | > 100 µM (inactive) | 29 µM (inactive) | 40.6 µM (inactive) | 42.7 µM (inactive) | 37.3 µM (inactive) | > 100 µM (inactive) | 79.1 µM (inactive) | 35.8 µM (inactive) | 74.8 µM (inactive) | > 100 µM (inactive) | 22 µM (inactive) | 81.7 µM (inactive) | – | –
CC12CCC3c4cc(Br)c(O)c(Br)c4CCC3C1CCC2O (stereo not drawn) | 19 µM (inactive) | 24.3 µM (inactive) | 15.8 µM (inactive) | 16 µM (inactive) | 23.5 µM (inactive) | 12.9 µM (inactive) | 16.3 µM (inactive) | 29.4 µM (inactive) | 19.8 µM (inactive) | 18.7 µM (inactive) | 18.9 µM (inactive) | 17.9 µM (inactive) | 15.6 µM (inactive) | – | 19.1 µM (inactive) | 32.7 µM (inactive) | 19.8 µM (inactive) | –
COC(=O)C(=O)C(C(=O)C(=O)Nc1ccccc1C(N)=O)c1nc2ccc(Cl)cc2nc1O (stereo not drawn) | > 100 µM (inactive) | > 100 µM (inactive) | – | > 100 µM (inactive) | > 100 µM (inactive) | > 100 µM (inactive) | > 100 µM (inactive) | > 100 µM (inactive) | > 100 µM (inactive) | > 100 µM (inactive) | > 100 µM (inactive) | 46.5 µM (inactive) | 82.8 µM (inactive) | > 100 µM (inactive) | > 100 µM (inactive) | > 100 µM (inactive) | – | –
OC1C#CCSCC#C/C=C\1 (stereo not drawn) | 94 µM (inactive) | 27 µM (inactive) | > 100 µM (inactive) | > 100 µM (inactive) | > 100 µM (inactive) | – | > 100 µM (inactive) | > 100 µM (inactive) | > 100 µM (inactive) | 76.6 µM (inactive) | > 100 µM (inactive) | 34 µM (inactive) | – | > 100 µM (inactive) | > 100 µM (inactive) | > 100 µM (inactive) | > 100 µM (inactive) | > 100 µM (inactive)
CCCSc1ccc2[nH]c(N3C(=O)/C(=C/c4ccc(O)c(OC)c4)N=C3c3ccccc3)cc2c1 | 4.18 µM (inactive) | 7.82 µM (inactive) | 4.2 µM (inactive) | 9.57 µM (inactive) | 0.1 µM (active) | 0.0791 µM (active) | – | 13.2 µM (inactive) | 9.16 µM (inactive) | 6.35 µM (inactive) | 6.7 µM (inactive) | 0.0697 µM (active) | 14.7 µM (inactive) | 3.57 µM (inactive) | 0.0775 µM (active) | 3.58 µM (inactive) | – | 0.0424 µM (active)
O=C(O)c1nc2cc(C(F)(F)F)ccc2nc1Nc1ccc(F)cc1 | – | 12.6 µM (inactive) | 18.7 µM (inactive) | 12.6 µM (inactive) | 30.7 µM (inactive) | 6.64 µM (inactive) | 13.4 µM (inactive) | 10.8 µM (inactive) | 22.3 µM (inactive) | 14.3 µM (inactive) | 15.8 µM (inactive) | 19.6 µM (inactive) | 25.2 µM (inactive) | 16.7 µM (inactive) | 7.16 µM (inactive) | 27 µM (inactive) | 20 µM (inactive) | –
OCCOCn1cc(Cn2ncc3c(SCc4ccccc4)ncnc32)nn1 | 64.9 µM (inactive) | – | 53.2 µM (inactive) | 26.9 µM (inactive) | 61.5 µM (inactive) | 32.3 µM (inactive) | 45.1 µM (inactive) | 69 µM (inactive) | 75.5 µM (inactive) | 34.4 µM (inactive) | 44.8 µM (inactive) | 39.8 µM (inactive) | 48.4 µM (inactive) | 85.7 µM (inactive) | 37.2 µM (inactive) | 27.3 µM (inactive) | > 100 µM (inactive) | 48.1 µM (inactive)
C=CCOC(C)(C)C1=CCC(C)CC1 (stereo not drawn) | > 100 µM (inactive) | – | > 100 µM (inactive) | > 100 µM (inactive) | > 100 µM (inactive) | > 100 µM (inactive) | > 100 µM (inactive) | > 100 µM (inactive) | > 100 µM (inactive) | > 100 µM (inactive) | > 100 µM (inactive) | > 100 µM (inactive) | > 100 µM (inactive) | > 100 µM (inactive) | – | > 100 µM (inactive) | > 100 µM (inactive) | > 100 µM (inactive)
Cc1c2oc(=O)c(C#N)cc2c2ccccn12 | – | > 100 µM (inactive) | > 100 µM (inactive) | 25.8 µM (inactive) | > 100 µM (inactive) | 27.6 µM (inactive) | 20.2 µM (inactive) | > 100 µM (inactive) | > 100 µM (inactive) | > 100 µM (inactive) | 17.3 µM (inactive) | > 100 µM (inactive) | 62.8 µM (inactive) | > 100 µM (inactive) | > 100 µM (inactive) | 70.1 µM (inactive) | > 100 µM (inactive) | –
O=C(/C=C/C=C/c1ccccc1)c1ccccc1 | 15.9 µM (inactive) | – | 16.9 µM (inactive) | 18.8 µM (inactive) | 22.2 µM (inactive) | 14.3 µM (inactive) | – | 19.1 µM (inactive) | 19.3 µM (inactive) | 15.1 µM (inactive) | 19.2 µM (inactive) | 20 µM (inactive) | 17.1 µM (inactive) | 17.9 µM (inactive) | 20.8 µM (inactive) | 18 µM (inactive) | 19.9 µM (inactive) | –
Cc1ccc(S(=O)(=O)NC(=O)Nc2c(S(N)(=O)=O)cc(S(N)(=O)=O)c(Cl)c2Cl)cc1 | > 100 µM (inactive) | > 100 µM (inactive) | > 100 µM (inactive) | > 100 µM (inactive) | > 100 µM (inactive) | > 100 µM (inactive) | > 100 µM (inactive) | > 100 µM (inactive) | > 100 µM (inactive) | > 100 µM (inactive) | > 100 µM (inactive) | > 100 µM (inactive) | > 100 µM (inactive) | > 100 µM (inactive) | > 100 µM (inactive) | > 100 µM (inactive) | > 100 µM (inactive) | –
O=C(O)CN1CCN(CC(=O)O)CCN(CC(=O)O)CCN(CC(=O)O)CC1 [TETRAXETAN] | > 100 µM (inactive) | > 100 µM (inactive) | > 100 µM (inactive) | > 100 µM (inactive) | – | > 100 µM (inactive) | > 100 µM (inactive) | > 100 µM (inactive) | > 100 µM (inactive) | > 100 µM (inactive) | > 100 µM (inactive) | > 100 µM (inactive) | > 100 µM (inactive) | > 100 µM (inactive) | > 100 µM (inactive) | > 100 µM (inactive) | > 100 µM (inactive) | > 100 µM (inactive)

— ChEMBL document CHEMBL1201862, “PubChem BioAssay data set” (2004)
